One data set has as its system Vero. As to the kind of experiment: Cytotoxicity against Chlorocebus aethiops (African green monkey) Vero cells assessed as inhibition of cell viability after 96 hr by MTT assay. Type of data set: cell-based. To be noted: Chlorocebus sabaeus.
The nature of data set [1]: Selectivity index, ratio of IC50 for african green monkey Vero cells to MIC for Mycobacterium tuberculosis H37Rv. Type of data set: toxicity, cell-based. As to conditions: read-out: Selectivity Index.
Data set [2] relates to Mycobacterium tuberculosis. As to the kind of experiment: Antimycobacterial activity against Mycobacterium tuberculosis H37Rv assessed as growth inhibition after 21 days by broth dilution assay. Type of data set: functional. (In broth dilution the organism is exposed to a series of concentrations in liquid medium.)
The next data set has as its system Escherichia coli. As to the kind of experiment: Antibacterial activity against Escherichia coli MTCC 1089 assessed as growth inhibition after 18 hr by broth microdilution method. Type of data set: functional. As to conditions: MTCC 1089, 18 h.
A further data set relates to Pseudomonas aeruginosa. In words: Antibacterial activity against Pseudomonas aeruginosa ATCC 25619 assessed as growth inhibition after 18 hr by broth microdilution method. The format is functional. To be noted: ATCC 25619, 18 h.
The test system of the next data set is Corynebacterium. As to the kind of experiment: Antibacterial activity against Corynebacterium ATCC 29355 assessed as growth inhibition after 18 hr by broth microdilution method. Type of data set: functional. To be noted: ATCC 29355, 18 h.
In another data set the test system is Staphylococcus aureus. In words: Antibacterial activity against Staphylococcus aureus ATCC 25365 assessed as growth inhibition after 18 hr by broth microdilution method. The format is functional. As to conditions: ATCC 25365, 18 h.

This is an account of results in ChEMBL document CHEMBL3045188, “Synthesis and antibacterial, antimycobacterial and docking studies of novel N-piperazinyl fluoroquinolones” (Med Chem Res, 2013).

SMILES strings stand for the structures. Values after ≈ are worked out from the molar mass of the structure shown. Active and inactive are the calls of the source. The calls are words filed in the database; no cut-off is given here.

As a reminder, the IC50 is the concentration at which inhibition is half-maximal. What is called MIC is the least concentration at which growth counts as inhibited. Take `CCn1cc(C(=O)O)c(=O)c2cc(F)c(N3CCN(c4nnc(SCC(=O)c5ccc(Br)cc5)s4)CC3)cc21`: in the data set on Vero, the IC50 stood at 5 µg/mL (≈ 7.9 µM). In addition, the selectivity ratio in data set [1] came out at 2. Further, the MIC is 2.5 µg/mL (≈ 3.95 µM) in data set [2] (504 h); 32 µg/mL (≈ 50.6 µM) in the data set with Escherichia coli; over 64 µg/mL in the data set on Pseudomonas aeruginosa; 4 µg/mL (≈ 6.32 µM) with Corynebacterium; 8 µg/mL (≈ 12.6 µM) in the data set on Staphylococcus aureus.

As to `CCn1cc(C(=O)O)c(=O)c2cc(F)c(N3CCN(c4nnc(SCC(=O)c5ccc(F)cc5)s4)CC3)cc21`, the minimal inhibitory concentration (MIC) was 5 µg/mL (≈ 8.75 µM) in data set [2] (504 h); over 64 µg/mL in the data set on Escherichia coli; 32 µg/mL (≈ 56 µM) in the data set with Pseudomonas aeruginosa; 2 µg/mL (≈ 3.5 µM) in the data set on Corynebacterium; 4 µg/mL (≈ 7 µM) in the data set with Staphylococcus aureus.

Turning to `O=C(CSc1nnc(N2CCN(c3cc4c(cc3F)c(=O)c(C(=O)O)cn4C3CC3)CC2)s1)c1ccc(F)cc1`, the MIC turned out to be 5 µg/mL (≈ 8.57 µM) in data set [2] (504 h); 16 µg/mL (≈ 27.4 µM) with Escherichia coli; 32 µg/mL (≈ 54.8 µM) in the data set on Pseudomonas aeruginosa; 4 µg/mL (≈ 6.85 µM) with Corynebacterium; 8 µg/mL (≈ 13.7 µM) with Staphylococcus aureus.

`COc1ccc(C(=O)CSc2nnc(N3CCN(c4cc5c(cc4F)c(=O)c(C(=O)O)cn5C4CC4)CC3)s2)cc1`: the MIC was 10 µg/mL (≈ 16.8 µM) in data set [2] (504 h); 32 µg/mL (≈ 53.7 µM) with Escherichia coli; over 64 µg/mL in the data set with Pseudomonas aeruginosa; 1 µg/mL (≈ 1.68 µM) with Corynebacterium; 2 µg/mL (≈ 3.36 µM) with Staphylococcus aureus.

In the case of `O=C(CSc1nnc(N2CCN(c3cc4c(cc3F)c(=O)c(C(=O)O)cn4C3CC3)CC2)s1)c1ccccc1`, the MIC result in data set [2] is “inactive”. The MIC in the data set on Escherichia coli is 32 µg/mL (≈ 56.6 µM); in the data set with Pseudomonas aeruginosa it was over 64 µg/mL; in the data set on Corynebacterium it was 16 µg/mL (≈ 28.3 µM); in the data set with Staphylococcus aureus, 16 µg/mL (≈ 28.3 µM).

With `NNC(=O)c1ccncc1` [ISONIAZID], the IC50 in the data set on Vero is over 12 µg/mL. In addition, the MIC in data set [2] (504 h) stood at 1.5 µg/mL (≈ 10.9 µM).

In the case of `O=C(CSc1nnc(N2CCN(c3cc4c(cc3F)c(=O)c(C(=O)O)cn4C3CC3)CC2)s1)c1ccc(Cl)cc1`, the 50% inhibitory concentration (IC50) in the data set on Vero stood at 3 µg/mL (≈ 5 µM). Also, the selectivity ratio in data set [1] is 3. Besides, the minimum inhibitory concentration (MIC) was 1 µg/mL (≈ 1.67 µM) in data set [2] (504 h); 16 µg/mL (≈ 26.7 µM) with Escherichia coli; over 64 µg/mL with Pseudomonas aeruginosa; 2 µg/mL (≈ 3.33 µM) in the data set with Corynebacterium; 4 µg/mL (≈ 6.67 µM) in the data set with Staphylococcus aureus.

As to `Cc1ccc(C(=O)CSc2nnc(N3CCN(c4cc5c(cc4F)c(=O)c(C(=O)O)cn5C4CC4)CC3)s2)cc1`, the MIC result in data set [2] is “inactive”. Further, the MIC with Escherichia coli was 16 µg/mL (≈ 27.6 µM); with Pseudomonas aeruginosa it was over 64 µg/mL; in the data set on Corynebacterium, 4 µg/mL (≈ 6.9 µM); in the data set with Staphylococcus aureus, 8 µg/mL (≈ 13.8 µM).

In the case of `O=C(CSc1nnc(N2CCN(c3cc4c(cc3F)c(=O)c(C(=O)O)cn4C3CC3)CC2)s1)c1ccc([N+](=O)[O-])cc1`, the IC50 in the data set on Vero is over 6.1 µg/mL. Moreover, the selectivity ratio in data set [1] was over 12.2. Further, the minimal inhibitory concentration (MIC) in data set [2] (504 h) was 0.5 µg/mL (≈ 0.819 µM); in the data set on Escherichia coli it was 32 µg/mL (≈ 52.4 µM); in the data set on Pseudomonas aeruginosa it was over 64 µg/mL; with Corynebacterium, 0.5 µg/mL (≈ 0.819 µM); in the data set on Staphylococcus aureus, 1 µg/mL (≈ 1.64 µM).

For the compound `CO[C@H]1/C=C/O[C@@]2(C)Oc3c(C)c(O)c4c(O)c(c(/C=N/N5CCN(C)CC5)c(O)c4c3C2=O)NC(=O)/C(C)=C\C=C\[C@H](C)[C@H](O)[C@@H](C)[C@@H](O)[C@@H](C)[C@H](OC(C)=O)[C@@H]1C` [RIFAMPIN], the 50% inhibitory concentration (IC50) in the data set on Vero is over 10 µg/mL. The selectivity ratio in data set [1] was over 10. In addition, the MIC in data set [2] (504 h) worked out at 1 µg/mL (≈ 1.22 µM).

For the compound `CCn1cc(C(=O)O)c(=O)c2cc(F)c(N3CCN(c4nnc(SCC(=O)c5ccc([N+](=O)[O-])cc5)s4)CC3)cc21`, the IC50 with Vero was over 10.2 µg/mL. Besides, the selectivity ratio in data set [1] was over 10.2. Besides, the MIC is 1 µg/mL (≈ 1.67 µM) in data set [2] (504 h); 16 µg/mL (≈ 26.7 µM) with Escherichia coli; over 64 µg/mL with Pseudomonas aeruginosa; 1 µg/mL (≈ 1.67 µM) with Corynebacterium; 2 µg/mL (≈ 3.34 µM) with Staphylococcus aureus.

Take `CCn1cc(C(=O)O)c(=O)c2cc(F)c(N3CCN(c4nnc(SCC(=O)c5ccc(Cl)cc5)s4)CC3)cc21`: in the data set with Vero, the IC50 came to 4 µg/mL (≈ 6.8 µM). Further, the selectivity ratio in data set [1] worked out at 2.67. Further, the MIC in data set [2] (504 h) was 1.5 µg/mL (≈ 2.55 µM); in the data set with Escherichia coli, 32 µg/mL (≈ 54.4 µM); in the data set with Pseudomonas aeruginosa it was over 64 µg/mL; in the data set with Corynebacterium, 2 µg/mL (≈ 3.4 µM); in the data set with Staphylococcus aureus, 4 µg/mL (≈ 6.8 µM).

With `CCn1cc(C(=O)O)c(=O)c2cc(F)c(N3CCNCC3)cc21` [NORFLOXACIN], the MIC was 2 µg/mL (≈ 6.26 µM) with Escherichia coli, 4 µg/mL (≈ 12.5 µM) in the data set on Pseudomonas aeruginosa, 2 µg/mL (≈ 6.26 µM) in the data set on Corynebacterium and 2 µg/mL (≈ 6.26 µM) in the data set with Staphylococcus aureus.

As to `O=C(CSc1nnc(N2CCN(c3cc4c(cc3F)c(=O)c(C(=O)O)cn4C3CC3)CC2)s1)c1ccc(Br)cc1`, in the data set with Vero, the IC50 stood at 6 µg/mL (≈ 9.31 µM). Moreover, the selectivity ratio in data set [1] came to 3. For the same compound, the minimal inhibitory concentration (MIC) in data set [2] (504 h) was 2 µg/mL (≈ 3.1 µM); in the data set on Escherichia coli, 16 µg/mL (≈ 24.8 µM); with Pseudomonas aeruginosa, over 64 µg/mL; in the data set on Corynebacterium, 4 µg/mL (≈ 6.21 µM); with Staphylococcus aureus it was 8 µg/mL (≈ 12.4 µM).

Turning to `CCn1cc(C(=O)O)c(=O)c2cc(F)c(N3CCN(c4nnc(SCC(=O)c5ccc(C)cc5)s4)CC3)cc21`, the MIC entry in data set [2] was “inactive”. Moreover, the MIC in the data set on Escherichia coli was over 64 µg/mL; in the data set on Pseudomonas aeruginosa, over 64 µg/mL; in the data set with Corynebacterium it was 4 µg/mL (≈ 7.05 µM); in the data set on Staphylococcus aureus, 8 µg/mL (≈ 14.1 µM).

With `CCn1cc(C(=O)O)c(=O)c2cc(F)c(N3CCN(c4nnc(SCC(=O)c5ccc(OC)cc5)s4)CC3)cc21`, the MIC is 10 µg/mL (≈ 17.1 µM) in data set [2] (504 h); over 64 µg/mL in the data set on Escherichia coli; over 64 µg/mL with Pseudomonas aeruginosa; 1 µg/mL (≈ 1.71 µM) in the data set on Corynebacterium; 2 µg/mL (≈ 3.43 µM) with Staphylococcus aureus.

With `CCn1cc(C(=O)O)c(=O)c2cc(F)c(N3CCN(c4nnc(SCC(=O)c5ccccc5)s4)CC3)cc21`, the MIC entry in data set [2] is “inactive”. Further, the minimal inhibitory concentration (MIC) in the data set on Escherichia coli was over 64 µg/mL; with Pseudomonas aeruginosa it was over 64 µg/mL; in the data set on Corynebacterium it was 16 µg/mL (≈ 28.9 µM); in the data set on Staphylococcus aureus, 32 µg/mL (≈ 57.8 µM).

Consider `O=C(O)c1cn(C2CC2)c2cc(N3CCNCC3)c(F)cc2c1=O` [CIPROFLOXACIN], for which the MIC worked out at 4 µg/mL (≈ 12.1 µM) in the data set with Pseudomonas aeruginosa and 2 µg/mL (≈ 6.04 µM) in the data set on Staphylococcus aureus.
